The values that follow come from patent publication US20230365592A1 (Agios Pharmaceuticals, Inc., priority 2022, published 2023).

The assay deals with T1, human PAH with the R408W mutation (Homo sapiens, UniProt P00439, R408W).
T1 construct: expressed in transfected cells
T1 sequence (P00439 1-452 R408W): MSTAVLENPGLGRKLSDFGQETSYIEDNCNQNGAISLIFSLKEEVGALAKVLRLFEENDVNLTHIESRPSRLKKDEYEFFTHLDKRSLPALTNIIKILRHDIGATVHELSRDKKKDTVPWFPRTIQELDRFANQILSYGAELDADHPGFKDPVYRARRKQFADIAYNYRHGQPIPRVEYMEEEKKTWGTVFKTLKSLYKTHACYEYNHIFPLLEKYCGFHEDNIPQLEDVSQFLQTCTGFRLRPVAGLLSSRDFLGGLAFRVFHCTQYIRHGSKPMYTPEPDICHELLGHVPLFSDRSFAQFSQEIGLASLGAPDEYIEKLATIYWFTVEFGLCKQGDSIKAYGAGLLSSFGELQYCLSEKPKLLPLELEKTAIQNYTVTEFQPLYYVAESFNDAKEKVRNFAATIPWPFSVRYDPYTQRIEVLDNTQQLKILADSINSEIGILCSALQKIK
Put plainly: Cell Based Phenylalanine Flux Assay.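 Note: after compound treatment, cells received sepiapterin plus isotope-labelled Phenylalanine for 4 hours, then labelled Tyrosine in the medium was quantified, 10-point 2-fold dilution series run in duplicate.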 Conditions: A375 cells expressing human R408W PAH; 24 hrs compound incubation; 13C-Tyrosine by LC-MS; average where tested multiple times; read-out: AC50.

One may read the AC50 as the concentration at which the activity in the assay is half-maximal. Turning to `O=C(c1nnc(C2CC2)o1)N1CCc2[nH]cnc2[C@H]1c1cc2c(Cl)cccn2n1` [Example 1094, (S)-(4-(4-chloropyrazolo[1,5-a]pyridin-2-yl)-6,7-dihydro-1H-imidazo[4,5-c]pyridin-5(4H)-yl)(5-cyclopropyl-1,3,4-oxadiazol-2-yl)methanone], the AC50 is < 500 nM.

As for `O=C(c1nnc(C2CC2)o1)N1CCc2[nH]cnc2[C@@H]1c1cc2c(Cl)cccn2n1` [Example 1095, (R)-(4-(4-chloropyrazolo[1,5-a]pyridin-2-yl)-6,7-dihydro-1H-imidazo[4,5-c]pyridin-5(4H)-yl)(5-cyclopropyl-1,3,4-oxadiazol-2-yl)methanone], the AC50 is > 5000 nM. As for `COc1ccc(-c2nnc(C(=O)N3CCc4[nH]cnc4[C@@H]3c3cc4cccc(Cl)n4n3)o2)nc1` [Example 1096, (R)-(4-(7-chloropyrazolo[1,5-a]pyridin-2-yl)-6,7-dihydro-1H-imidazo[4,5-c]pyridin-5(4H)-yl)(5-(5-methoxypyridin-2-yl)-1,3,4-oxadiazol-2-yl)methanone], the figure is > 5000 nM. With `COc1ccc(-c2nnc(C(=O)N3CCc4[nH]cnc4[C@H]3c3cc4cccc(Cl)n4n3)o2)nc1` [Example 1097, (S)-(4-(7-chloropyrazolo[1,5-a]pyridin-2-yl)-6,7-dihydro-1H-imidazo[4,5-c]pyridin-5(4H)-yl)(5-(5-methoxypyridin-2-yl)-1,3,4-oxadiazol-2-yl)methanone], the AC50 was 500 to 1000 nM. For `Cn1cnc(-c2nnc(C(=O)N3CCc4[nH]cnc4[C@@H]3c3cc4cccc(Cl)n4n3)o2)c1` [Example 1098, (R)-(4-(7-chloropyrazolo[1,5-a]pyridin-2-yl)-6,7-dihydro-1H-imidazo[4,5-c]pyridin-5(4H)-yl)(5-(1-methyl-1H-imidazol-4-yl)-1,3,4-oxadiazol-2-yl)methanone] the value was > 5000 nM; for `Cn1cnc(-c2nnc(C(=O)N3CCc4[nH]cnc4[C@H]3c3cc4cccc(Cl)n4n3)o2)c1` [Example 1099, (S)-(4-(7-chloropyrazolo[1,5-a]pyridin-2-yl)-6,7-dihydro-1H-imidazo[4,5-c]pyridin-5(4H)-yl)(5-(1-methyl-1H-imidazol-4-yl)-1,3,4-oxadiazol-2-yl)methanone], 500 to 1000 nM; for `Cn1cc(-c2nnc(C(=O)N3CCc4[nH]cnc4[C@H]3c3cc4ccc(F)cn4n3)o2)cn1` [Example 1100, (S)-(4-(6-fluoropyrazolo[1,5-a]pyridin-2-yl)-6,7-dihydro-1H-imidazo[4,5-c]pyridin-5(4H)-yl)(5-(1-methyl-1H-pyrazol-4-yl)-1,3,4-oxadiazol-2-yl)methanone], 500 to 1000 nM. With `Cn1cc(-c2nnc(C(=O)N3CCc4[nH]cnc4[C@@H]3c3cc4ccc(F)cn4n3)o2)cn1` [Example 1101, (R)-(4-(6-fluoropyrazolo[1,5-a]pyridin-2-yl)-6,7-dihydro-1H-imidazo[4,5-c]pyridin-5(4H)-yl)(5-(1-methyl-1H-pyrazol-4-yl)-1,3,4-oxadiazol-2-yl)methanone], the AC50 is > 5000 nM. As for `Cn1ccc(-c2nnc(C(=O)N3CCc4[nH]cnc4[C@H]3c3cc4ccc(F)cn4n3)o2)n1` [Example 1102, (S)-(4-(6-fluoropyrazolo[1,5-a]pyridin-2-yl)-6,7-dihydro-1H-imidazo[4,5-c]pyridin-5(4H)-yl)(5-(1-methyl-1H-pyrazol-3-yl)-1,3,4-oxadiazol-2-yl)methanone], the figure is 500 to 1000 nM; as for `Cn1ccc(-c2nnc(C(=O)N3CCc4[nH]cnc4[C@@H]3c3cc4ccc(F)cn4n3)o2)n1` [Example 1103, (R)-(4-(6-fluoropyrazolo[1,5-a]pyridin-2-yl)-6,7-dihydro-1H-imidazo[4,5-c]pyridin-5(4H)-yl)(5-(1-methyl-1H-pyrazol-3-yl)-1,3,4-oxadiazol-2-yl)methanone], > 5000 nM. As for `O=C(c1ocnc1C(F)F)N1CCc2[nH]cnc2[C@@H]1c1cc2ccc(C(F)(F)F)cn2n1` [Example 1105, (R)-(4-(difluoromethyl)oxazol-5-yl)(4-(6-(trifluoromethyl)pyrazolo[1,5-a]pyridin-2-yl)-6,7-dihydro-1H-imidazo[4,5-c]pyridin-5(4H)-yl)methanone], the figure is 1000 to 5000 nM. For `Cc1nnc(C(=O)N2CCc3[nH]cnc3[C@H]2c2cc3c(Cl)cccn3n2)o1` [Example 1106, (S)-(4-(4-chloropyrazolo[1,5-a]pyridin-2-yl)-6,7-dihydro-1H-imidazo[4,5-c]pyridin-5(4H)-yl)(5-methyl-1,3,4-oxadiazol-2-yl)methanone] the value was < 500 nM.

As to `Cc1nnc(C(=O)N2CCc3[nH]cnc3[C@@H]2c2cc3c(Cl)cccn3n2)o1` [Example 1107, (R)-(4-(4-chloropyrazolo[1,5-a]pyridin-2-yl)-6,7-dihydro-1H-imidazo[4,5-c]pyridin-5(4H)-yl)(5-methyl-1,3,4-oxadiazol-2-yl)methanone], the AC50 is 1000 to 5000 nM.

For `CC(C)(F)c1nnc(C(=O)N2CCc3[nH]cnc3[C@@H]2c2cc3c(Cl)cccn3n2)o1` [Example 1108, (R)-(4-(4-chloropyrazolo[1,5-a]pyridin-2-yl)-6,7-dihydro-1H-imidazo[4,5-c]pyridin-5(4H)-yl)(5-(2-fluoropropan-2-yl)-1,3,4-oxadiazol-2-yl)methanone], the AC50 is > 5000 nM.

With `Cc1ccc2cc([C@H]3c4nc[nH]c4CCN3C(=O)c3nnc(C(C)(C)C)o3)nn2c1` [Example 1111, (R)-(5-(tert-butyl)-1,3,4-oxadiazol-2-yl)(4-(6-methylpyrazolo[1,5-a]pyridin-2-yl)-6,7-dihydro-1H-imidazo[4,5-c]pyridin-5(4H)-yl)methanone], the AC50 is > 5000 nM. As for `Cc1ccc2cc([C@@H]3c4nc[nH]c4CCN3C(=O)c3ccnn3C(F)F)nn2c1` [Example 1112, (S)-(1-(difluoromethyl)-1H-pyrazol-5-yl)(4-(6-methylpyrazolo[1,5-a]pyridin-2-yl)-6,7-dihydro-1H-imidazo[4,5-c]pyridin-5(4H)-yl)methanone], the half-maximal activity concentration (AC50) was < 500 nM. As for `Cc1ccc2cc([C@H]3c4nc[nH]c4CCN3C(=O)c3ccnn3C(F)F)nn2c1` [Example 1113, (R)-(1-(difluoromethyl)-1H-pyrazol-5-yl)(4-(6-methylpyrazolo[1,5-a)pyridin-2-yl)-6,7-dihydro-1H-imidazo[4,5-c]pyridin-5(4H)-yl)methanone], the figure is 1000 to 5000 nM; as for `CC(C)(F)c1nnc(C(=O)N2CCc3[nH]cnc3[C@H]2c2cc3ccc(F)cn3n2)o1` [Example 1114, (S)-(5-(2-fluoropropan-2-yl)-1,3,4-oxadiazol-2-yl)(4-(6-fluoropyrazolo[1,5-a]pyridin-2-yl)-6,7-dihydro-1H-imidazo[4,5-c]pyridin-5(4H)-yl)methanone], 500 to 1000 nM.

Take `O=C(c1nnc(-c2ccn(C(F)F)n2)o1)N1CCc2[nH]cnc2[C@@H]1c1cc2c(Cl)cccn2n1` [Example 1119, (R)-(4-(4-chloropyrazolo[1,5-a]pyridin-2-yl)-6,7-dihydro-1H-imidazo[4,5-c]pyridin-5(4H)-yl)(5-(1-(difluoromethyl)-1H-pyrazol-3-yl)-1,3,4-oxadiazol-2-yl)methanone]: the AC50 was > 5000 nM. As for `O=C(c1nnc(-c2cnn(C(F)F)c2)o1)N1CCc2[nH]cnc2[C@H]1c1cc2cccc(Cl)n2n1` [Example 1120, (S)-(4-(7-chloropyrazolo[1,5-a]pyridin-2-yl)-6,7-dihydro-1H-imidazo[4,5-c]pyridin-5(4H)-yl)(5-(1-(difluoromethyl)-1H-pyrazol-4-yl)-1,3,4-oxadiazol-2-yl)methanone], the figure is < 500 nM.
